{
  "source": "patent US10688113B2",
  "about": "(priority 2015, dated 2020)",
  "key": {"[1]": {"system": "capsaicin-induced ocular pain (33 mM)", "test": "Capsaicin-induced ocular pain, acute treatment (single instillation 15 min before capsaicin)", "format": "in vivo, New Zealand white rabbits", "settings": "rabbit, single instillation of 10 mM, 15 min before capsaicin 33 mM; compared with capsazepine 5 mM", "procedure": "In order to study the pharmacological activity of the present invention in the case of ocular pain, the compounds of formula (I) were tested using the model of capsaicin-induced ocular pain. In this model, previously used in the literature (Gonzalez et al. (1993) Invest. Ophthalmol. Vis. Sci., 34(12), 3329-3335), in adult rabbits, the number of lid-squeezing movements, the degree of palpebral opening, miotic response and conjunctival vasodilation evoked by a bilateral instillation of 30 μL of capsaicin (33 mM) were measured at different times after administration of the drug. To that end, the responses to this test in eyes pre-treated with various calcium antagonists (diltiazem, verapamil or nifedipine) were compared with those that had received only vehicle.\nThe procedure and the timing were as follows:\nEvaluation of corneal pain by observing conjunctival hyperaemia after pain induction (a single instillation of 1% capsaicin (33 mM) in the right eye) in albino rabbits. Pre-treatment with the compound to be tested, 15 min before capsaicin instillation."}, "[2]": {"system": "corneal mechanical sensitivity (allodynia)", "test": "Corneal mechanical sensitivity (allodynia), Von Frey filaments, trephine-injured cornea plus capsaicin", "format": "in vivo, male C57BL/6 mice", "settings": "mice, 10 mM topical twice-daily for 5 days, capsaicin 100 μM, vs 1×PBS", "procedure": "(§1) During this test, de-epithelialization of the corneal epithelium of the left eye of the mouse is carried out using a 1.5 mm diameter trephine. This surgery is carried out under a surgical microscope. This procedure lasts at most 3 minutes per animal. The depth and surface area of corneal de-epithelialization are standardized and then evaluated by a slit-lamp examination. The advantage of this surgical tool is standardization of the injury. The 8-week-old male C57BL/6 mice thus treated receive a twice-daily treatment for 5 days of the compound of formula I or PBS before the application of capsaicin.\nAdditional pain is induced by capsaicin (100 μM). Corneal mechanical sensitivity (allodynia) was measured using Von Frey filaments, 5 days after treatment, on mice treated with compound 1 (10 mM), with compound 2 (10 mM) or, for the control group, with 1×PBS (n=5 animals per group). The results obtained are presented in FIG. 6 (y-axis: weight of the Von Frey filament in grams). The histogram on the left (black) represents the response of mice treated with PBS, the histogram in the middle represents the response of mice treated with compound 1 and the histogram on the right represents the response of mice treated with compound 2."}, "[3]": {"system": "LPS-induced bacterial keratitis", "test": "LPS-induced inflammation model (corneal scratch, LPS 50 μg) followed by capsaicin instillation", "format": "in vivo", "settings": "mice, LPS 50 μg days 1 and 4, 10 mM twice-daily for 5 days, capsaicin 100 μM on day 5, vs PBS", "procedure": "Bacterial lipopolysaccharide (LPS, endotoxin) is a potent stimulator of inflammatory responses and contributes to microbial keratitis and to corneal ulcers (Khatri et al. 2002 Invest. Ophthal. Vis. Sci., 43 2278-2284).\nEffect of compound 2 in a model of LPS-induced inflammation (50 μg). A corneal epithelial injury (scratch) is made with a trephine (1.5 mm diameter) in mice, followed by topical treatment with LPS (50 μg, two administrations on days 1 and 4) then twice-daily chronic treatment for 5 days with 1×PBS (control group) or with compound 2 (10 mM) (n=6 animals per group), followed by capsaicin instillation (100 μM) on day 5. The results obtained are presented in FIG. 8 (y-axis: palpebral closure time in seconds). The histogram on the left represents the response of mice treated with PBS, while the histogram on the right represents the response of mice treated with compound 2."}, "[4]": {"system": "mechanical allodynia induced by 0.2% BAC", "test": "Keratitis induced by chronic instillation of 0.2% benzalkonium chloride (BAC), Von Frey filaments", "format": "in vivo, male C57BL/6 mice", "settings": "mice, 0.2% BAC for 6 days then 10 mM twice-daily for 5 days; vs 1×PBS", "from_the_text": "Chronic instillation of 0.2% benzalkonium chloride induces chronic inflammation of the cornea with generation of ocular pain (Launay et al. (2016) Neurobiol. Dis., 88 16-28). This model was used as a model of chemical keratitis.\nStudy of corneal sensitivity in mice treated twice-daily with compound 2 for 5 days first treated with 0.2% BAC for 6 days. The corneal mechanical sensitivity of male C57BL/6 mice, treated with 0.2% BAC for 6 days, then twice-daily with compound 2 for 5 days, was evaluated at various times using Von Frey filaments, compared with a control group receiving twice-daily 1×PBS (n=10 animals per group). The use of Von Frey filaments (applied to the centre of the cornea of a conscious animal) is perfectly feasible for measuring corneal mechanical allodynia in mice. In the context of dry eye, the technique produces mechanical allodynia in the patient: the simple fact of closing the eyelid induces a painful sensation. Lastly, this behavioural test is most like the one used in human clinical practice (Cochet-Bonnet) to measure corneal mechanical sensitivity.\nThe results obtained are presented in FIG. 7 (y-axis: weight of the Von Frey filament in grams). The histogram on the left represents the response of mice treated with PBS, while the histogram on the right represents the response of mice treated with compound 2."}, "[5]": {"system": "capsaicin-induced ocular pain (100 μM)", "test": "Capsaicin test (100 μM) after chronic twice-daily treatment on trephine-injured cornea", "format": "in vivo, male C57BL/6 mice", "settings": "mice, trephine corneal injury, 10 mM topical twice-daily for 4 days, capsaicin 100 μM 15 min after last instillation; vs PBS", "procedure": "The compounds of formula I of the present invention were also tested, in 8-week-old male C57BL/6 mice (JANVIER LABS), using a capsaicin test (100 μM) after twice-daily treatment for 5 days of the compound of formula I on cornea injured beforehand (with a 1.5 mm diameter trephine).\nAnalgesic effect of compound 2 in the model of capsaicin-induced ocular pain (100 μM). A corneal epithelial injury was made on the right cornea of male C57BL/6 mice (JANVIER LABS) using a 1.5 mm diameter trephine. Once the animals were operated on, a twice-daily topical treatment, for 4 days, is carried out with 1×PBS (5 animals per group) or with 10 mM compound 2 (5 animals per group). On day 4, 15 minutes after the last instillation, 100 μM capsaicin is instilled and the behavioural analysis is performed. The results obtained corresponding to the trephine injury alone before capsaicin are shown in FIG. 5 (y-axis: palpebral closure time in seconds).\nas §1, with “The 8-week-old male C57BL/6 mice thus treated receive a twice-daily treatment for 5 days of the compound of formula I or PBS before the application of capsaicin.” left out"}, "[6]": {"system": "capsaicin-induced ocular pain", "settings": "rabbits, 1 to 28 mM administered 15 minutes before application of capsaicin; cited from earlier work"}, "[7]": {"system": "contractile responses to capsaicin", "settings": "morphine 5×100 μM; cited from earlier work"}, "[8]": {"system": "capsaicin-induced blinking", "settings": "cited from earlier work"}},
  "data": [
    {"smiles": "C[C@H](NC(=O)[C@H](Cc1ccc(-c2ccccc2)cc1)CP(=O)([O-])[C@H](C)N)C(=O)[O-].[Na+].[Na+]", "note": "[compound 1]", "values": [
      {"measurement": "analgesic effect on conjunctival hyperaemia following pain induction by capsaicin", "setting": "[1]", "result": "superior to the reference product, capsazepine"},
      {"measurement": "analgesic effect on palpebral opening following pain induction by capsaicin", "setting": "[1]", "result": "superior to the reference product, capsazepine"},
      {"measurement": "mechanical sensitivity measured with Von Frey filaments", "setting": "[2]", "result": "significant decrease"}
    ]},
    {"smiles": "CC(OC(=O)N[C@@H](C)P(=O)([O-])C[C@@H](Cc1ccc(-c2ccccc2)cc1)C(=O)N[C@@H](C)C(=O)[O-])OC(=O)C(C)C.[Na+].[Na+]", "note": "(stereo partly shown) [compound 2]", "values": [
      {"measurement": "analgesic effect on conjunctival hyperaemia following pain induction by capsaicin", "setting": "[1]", "result": "superior to the reference product, capsazepine"},
      {"measurement": "analgesic effect on palpebral opening following pain induction by capsaicin", "setting": "[1]", "result": "superior to the reference product, capsazepine"},
      {"measurement": "analgesic effect (cumulative palpebral closure time) in LPS-induced keratitis", "setting": "[3]", "result": "very significant analgesic effect (shorter cumulative palpebral closure time)"},
      {"measurement": "mechanical sensitivity measured with Von Frey filaments", "setting": "[2]", "result": "significant decrease"},
      {"measurement": "mechanical allodynia induced by 0.2% BAC (Von Frey filaments)", "setting": "[4]", "result": "significantly reduced (higher sensitivity threshold)"},
      {"measurement": "analgesic effect (cumulative palpebral closure time) in the capsaicin test", "setting": "[5]", "result": "very significant analgesic effect (shorter cumulative palpebral closure time)"}
    ]},
    {"smiles": "COc1ccc([C@@H]2Sc3ccccc3N(CCN(C)C)C(=O)[C@@H]2OC(C)=O)cc1", "note": "[diltiazem]", "values": [
      {"measurement": "capsaicin-induced scratching movements, conjunctival hyperaemia, eye closure and elevated aqueous protein concentration", "setting": "[6]", "result": "significantly decreased"}
    ]},
    {"smiles": "CN1CC[C@]23c4c5ccc(O)c4O[C@H]2[C@@H](O)C=C[C@H]3[C@H]1C5", "note": "[morphine]", "values": [
      {"measurement": "contractile responses to capsaicin", "setting": "[7]", "result": "partially inhibited"},
      {"measurement": "blinking, healthy non-inflamed rat cornea", "setting": "[8]; applied to healthy, non-inflamed rat cornea", "result": "no effect on blinking"},
      {"measurement": "capsaicin-induced blinking", "setting": "[8]; rats, topical application of a drop, 5 μM", "result": "attenuates capsaicin-induced blinking in a concentration-dependent manner"}
    ]}
  ]
}
